# Values joined by “and” are separate entries in the source; they are usually repeats but may differ in a detail not shown here. Equal entries are not always repeated.
# Experiments:
# RAW 264.7 cells = experiment: Cyclic-AMP production in RAW 264.7 cells; type: cell-based, murine; details: 30 min, 37 °C, 1 mM IBMX, four experiments per peptide, each value from separate experiment(s)
# Method: RAW 264.7 cells were grown to confluence in culture plates, harvested by classical methods, and then seeded onto 48-well plates (1 × 10^6/ml). Cells were incubated with peptide at 37 °C in Opti-MEM I serum-free medium containing 1 mM 3-isobutyl-1-methylxanthine. At 30 min, cells were lysed in the original wells. The lysates were extracted from the wells, and cyclic-AMP measurements carried out using the Biotrak kit (cyclic-AMP Biotrak Enzymeimmunoassay System, Amersham Biosciences) including a standard cyclic-AMP curve as recommended by the suppliers.[35]
# RAW 264.7 cells were incubated with peptides for 30 minutes at 37 degrees. Cell lysates were extracted and c-AMP measurements carried out using a commercial kit [c-AMP biotrack-immunoassay system, Amersham Biosciences] with a c-AMP standard curve as recommended by the suppliers. […] The only experiment with ACTH is shown above. (Effects of LPS at 4 nanograms per ml. or of HMGB1 at 0.1 µg. per ml. on ligand-stimulated c-AMP accumulation were quite modest and inconsistent). […]
# Balb/C mice = experiment: CLP sepsis, survival and serum cytokines at 40 h (protocol B); type: in vivo; details: one dose 5 mg/kg i.p. at 24 h
# Method: In vivo studies were performed in accordance with National Institutes of Health guidelines and with the approval of the North Shore-Long Island Jewish Health System’s Institutional Animal Care and Use Committee (IACUC). In mice, polymicrobial sepsis was induced by surgical ligation and perforation of the cecum, a widely used technique known as CLP. Briefly, male BALB/c mice (7–8 weeks old, 20–25 g) were anesthetized with a mixture of ketamine (100 mg/kg) and xylazine (8 mg/kg) intramuscularly, and a 15 mm midline incision was made to expose the cecum. After ligation of the cecum with a 6.0 silk suture below the junction of the ileo–cecal valve, the ligated cecal stump was perforated once with a 22-gauge needle. The cecum was then gently squeezed to extrude a small amount of feces through the perforation site. The cecum was restored to its normal intra-abdominal position, and the laparotomy was closed with 6.0 silk sutures. Immediately after CLP surgery, all animals were resuscitated with normal saline solution (subcutaneously 20 ml/kg body weight), and given a single dose of antibiotics (primaxin 0.5 mg/kg). In sham operated animals, the cecum was temporarily ligated, but the bowel was not punctured; these animals also received antibiotic treatment and resuscitation fluid. […] Survival was monitored twice daily for 2 weeks, at which time survivors were killed (CO2 asphyxia). […] Survival was monitored twice daily after surgery. […]
# The levels of HMGB1 in the culture medium or murine serum were measured by western immunoblotting as previously described.[30] […] The relative band intensity was quantified by using the NIH image 1.59 software. The levels of HMGB1 (expressed as % maximum effect) were calculated with reference to standard curves generated with purified rHMGB1 and expressed as mean ± SEM of four experiments.
# Concentrations of TNF and IL-6 were each determined using a commercially available enzyme-linked immunosorbent assay (ELISA) kit (R&D System Inc.) as previously described.[34] The levels of TNF or IL-6 were calculated with reference to standard curves. […]
substance,measurement,setting,value
alpha-melanocyte-stimulating hormone [alpha-MSH],peptide concentration at which statistically significant stimulation of cAMP was noted (single experiments),RAW 264.7 cells,10^-9 M and 10^-10 M
same,serum TNF and IL-6 in survivors at 40 h after CLP,"Balb/C mice; ELISA, p < 0.05 vs CLP alone",significantly muted responses
same,animals surviving to 40 h after CLP,"Balb/C mice; n = 10, saline four out of nine",Six of ten
same,animals with elevated serum HMGB1 at 40 h after CLP,"Balb/C mice; western blot, saline three of four",none
